Test results from the NIST ThermoML archive (doi:10.1016/j.jct.2014.10.021).
± gives the expanded uncertainty stated by the source.

Test: mn = molality of the nth substance listed, in mol/kg
Settings: 298.15 K, 101.33 kPa, Liquid, Alternating current cell with electrodes

CCCC[N+](CCCC)(CCCC)CCCC.O=S(=O)([O-])C(F)(F)C(F)(F)C(F)(F)C(F)(F)F [tetrabutylammonium perfluorobutanesulfonate] + O
Settings	electrical conductivity [S/m]
m1 = 0.002247	0.0136 ± 0.00027
m1 = 0.002283	0.0138 ± 0.00028
m1 = 0.002308	0.0139 ± 0.00028
m1 = 0.002329	0.014 ± 0.00028
m1 = 0.002356	0.0142 ± 0.00028
m1 = 0.002375	0.0143 ± 0.00029
m1 = 0.002407	0.0145 ± 0.00029
m1 = 0.002447	0.0147 ± 0.00029
m1 = 0.002477	0.0148 ± 0.0003
m1 = 0.002494	0.0149 ± 0.0003
m1 = 0.002516	0.015 ± 0.0003
m1 = 0.002534	0.0151 ± 0.0003

CCCCCCCCn1cc[n+](C)c1.O=S(=O)([O-])C(F)(F)C(F)(F)C(F)(F)C(F)(F)F [1-methyl-3-octylimidazolium perfluorobutanesulfonate] + O
Settings	electrical conductivity [S/m]
m1 = 0.0003013	0.0016 ± 3e-05
m1 = 0.0007028	0.0037 ± 7e-05
m1 = 0.001019	0.0054 ± 0.00011
m1 = 0.001249	0.0069 ± 0.00014
m1 = 0.00155	0.008 ± 0.00016
m1 = 0.001919	0.0102 ± 0.0002
m1 = 0.0022	0.0117 ± 0.00023
m1 = 0.002596	0.0136 ± 0.00027
m1 = 0.002912	0.0145 ± 0.00029
m1 = 0.003181	0.0157 ± 0.00031
m1 = 0.003623	0.017 ± 0.00034
m1 = 0.003988	0.0176 ± 0.00035
m1 = 0.004309	0.0183 ± 0.00037
m1 = 0.004701	0.0192 ± 0.00038
m1 = 0.005065	0.0202 ± 0.0004
m1 = 0.005333	0.0206 ± 0.00041
m1 = 0.005728	0.0209 ± 0.00042

CCCCCCCCCCCCn1cc[n+](C)c1.O=S(=O)([O-])C(F)(F)C(F)(F)C(F)(F)C(F)(F)F [1-dodecyl-3-methylimidazolium perfluorobutanesulfonate] + O
Settings	electrical conductivity [S/m]
m1 = 1.598e-05	0.00011 ± 1e-05
m1 = 2.066e-05	0.00016 ± 1e-05
m1 = 2.421e-05	0.00018 ± 1e-05
m1 = 2.925e-05	0.00022 ± 1e-05
m1 = 3.682e-05	0.0003 ± 1e-05
m1 = 4.977e-05	0.00041 ± 1e-05
m1 = 5.764e-05	0.00048 ± 1e-05
m1 = 7.583e-05	0.00063 ± 1e-05
m1 = 8.783e-05	0.0007 ± 2e-05
m1 = 0.0001043	0.00085 ± 2e-05
m1 = 0.0001122	0.00089 ± 2e-05
m1 = 0.0001213	0.00095 ± 2e-05
m1 = 0.000132	0.00101 ± 2e-05
m1 = 0.0001448	0.00109 ± 2e-05
m1 = 0.0001603	0.00118 ± 2e-05
m1 = 0.0001796	0.00129 ± 3e-05
m1 = 0.0001903	0.00136 ± 3e-05

CCCC[N+]1(C)CCCC1.O=S(=O)([O-])C(F)(F)C(F)(F)C(F)(F)C(F)(F)F [1-butyl-1-methylpyrrolidinium perfluorobutanesulfonate] + O
Settings	electrical conductivity [S/m]
m1 = 0.004597	0.0233 ± 0.00047
m1 = 0.005016	0.0254 ± 0.00051
m1 = 0.005639	0.0279 ± 0.00056
m1 = 0.006033	0.0293 ± 0.00059
m1 = 0.006491	0.0311 ± 0.00062
m1 = 0.007025	0.0343 ± 0.00069
m1 = 0.007655	0.0363 ± 0.00073
m1 = 0.008405	0.0397 ± 0.00079
m1 = 0.00933	0.0447 ± 0.00089
m1 = 0.0105	0.0483 ± 0.00097
m1 = 0.012	0.0554 ± 0.0011
m1 = 0.01274	0.0584 ± 0.0012
m1 = 0.01401	0.0642 ± 0.0013
m1 = 0.01533	0.0697 ± 0.0014
m1 = 0.01608	0.0731 ± 0.0015
m1 = 0.01691	0.0769 ± 0.0015
m1 = 0.01784	0.0804 ± 0.0016

CCCCCC[n+]1ccn(C)c1.O=S(=O)([O-])C(F)(F)C(F)(F)C(F)(F)C(F)(F)F [1-methyl-3-hexylimidazolium perfluorobutanesulfonate] + O
Settings	electrical conductivity [S/m]
m1 = 0.0006843	0.0038 ± 8e-05
m1 = 0.001003	0.0055 ± 0.00011
m1 = 0.001271	0.0072 ± 0.00014
m1 = 0.001953	0.0108 ± 0.00022
m1 = 0.002415	0.0133 ± 0.00027
m1 = 0.002944	0.0163 ± 0.00033
m1 = 0.003168	0.0174 ± 0.00035
m1 = 0.00367	0.0201 ± 0.0004
m1 = 0.004364	0.0235 ± 0.00047
m1 = 0.004701	0.0252 ± 0.0005
m1 = 0.005473	0.0291 ± 0.00058
m1 = 0.006118	0.0323 ± 0.00065
m1 = 0.006443	0.0339 ± 0.00068
m1 = 0.007009	0.0367 ± 0.00073
m1 = 0.007312	0.0382 ± 0.00076
m1 = 0.007666	0.04 ± 0.0008
m1 = 0.007936	0.0413 ± 0.00083
m1 = 0.008317	0.0431 ± 0.00086
m1 = 0.008657	0.0448 ± 0.0009
m1 = 0.009459	0.0484 ± 0.00097
m1 = 0.009734	0.0497 ± 0.00099
m1 = 0.01004	0.051 ± 0.001
m1 = 0.01032	0.0523 ± 0.001
m1 = 0.01057	0.0535 ± 0.0011
m1 = 0.01151	0.0567 ± 0.0011
m1 = 0.01188	0.0581 ± 0.0012
m1 = 0.01244	0.0611 ± 0.0012
m1 = 0.01292	0.0624 ± 0.0013
m1 = 0.01353	0.0644 ± 0.0013
m1 = 0.01416	0.0668 ± 0.0013
m1 = 0.01452	0.069 ± 0.0014
